In patent publication US20190233884A1 (University of Southern California, priority 2016, published 2019):
“Also recorded” adds a separate entry of the source.

System: patients with refractory metastatic colorectal cancer (mCRC)
Test: PFS, OS and disease control in the control cohort of refractory mCRC patients receiving regorafenib (n=52, Italy), by baseline characteristics and SNP genotype
Format: in vivo, human
Conditions: for Median OS (months) / Median PFS (months): ITA REGORA cohort; for Disease Control CR/PR/SD, patients n (%) / Median OS (95% CI) / Median PFS (95% CI) / PD, patients n (%) / HR OS (95% CI) / HR PFS (95% CI) / Median OS / Median PFS / HR OS / HR PFS: control cohort
Method: All patients underwent the treatment in salvage-line setting.
(§1) Patients in the control group received 160 mg regorafenib (Bayer, Leverkusen, Germany) once daily from day 1 to 21 every 4 weeks. Doses were adjusted based on haematological and non-haematological adverse events at the treating physician's discretion in accordance with the manufacturer's recommendations. The analyses were approved by the University of Southern California (USC) Institutional Review Board of Medical Sciences and conducted at the USC/Norris Comprehensive Cancer Center in accordance with the Declaration of Helsinki and Good Clinical Practice Guidelines.
(§2) Genomic DNA was extracted from peripheral whole blood in patients of all cohorts using the QIAmp Kit (Qiagen, Valencia, Calif., USA) according to the manufacturer's protocol (www.qiagen.com). The candidate SNPs were genotyped using PCR-based direct DNA sequence analysis by ABI 3100A Capillary Genetic Analyzer and Sequencing Scanner v1.0 (Applied Biosystems). Amplification of extracted DNA was carried out using both forward and reverse primers for each gene polymorphism as shown in Table 1. […] The investigators analyzing SNPs were blinded to the clinical data of the study patients.
The primary endpoint in this study was progression-free survival (PFS), and the secondary endpoints were overall survival (OS) and disease control rate (DCR). PFS was calculated from the date of starting treatment to the first observation of disease progression or death from any cause. If a patient had no disease progression or death, PFS was censored at the date of last follow up. OS was calculated from the date of starting treatment until the date of death from any cause or the date of the last follow-up, at which point OS was censored. The disease control rate (DCR) was defined as the proportion of patients who achieved a stable disease (SD) or […] according to RECISTv1.1. Chi-square test was used to examine the difference in baseline patient characteristics among the three cohorts. Allelic distribution of all SNPs by ethnicity for deviation from Hardy-Weinberg equilibrium and the allelic frequencies of SNPs were tested using the Chi-square tests with one degree of freedom. The associations between candidate SNPs and disease control, and toxicities were examined using contingency tables and Fisher's exact test. The associations of SNPs with PFS and OS were analysed using Kaplan-Meier curves and the log-rank test. Because the true mode of inheritance of candidate SNPs was not established yet, a codominant or dominant genetic model if appropriate was considered.
All patients underwent the treatment in salvage-line setting. […] In all patients, adverse events were graded according to the Common Terminology Criteria for Adverse Events, version 4.0.
as §1, with “events at treating physician's” for “events at the treating physician's”
as §2, with “tested” for “genotyped”, “Biosystems).” for “Biosystems). Amplification of extracted DNA was carried out using both forward and reverse primers for each gene polymorphism as shown in Table 1.”, “data.” for “data of the study patients.”
The primary endpoint in this study was progression-free survival (PFS), and the secondary endpoints were overall survival (OS) and disease control rate (DCR). […]

[1] = ATM rs609429 Any G vs C/C (Ref.), multivariable
[2] = ATM rs609429 Any G vs C/C (Ref.), univariate
[3] = Adjuvant history No vs Yes (Ref.), univariate
[4] = Age ≥61 vs <61 (Ref.), univariate
[5] = CHEK2 rs2267130 Any C vs T/T (Ref.), multivariable
[6] = CHEK2 rs2267130 Any C vs T/T (Ref.), univariate
[7] = CHEK2 rs2267130 C/C vs T/T (Ref.), multivariable
[8] = CHEK2 rs2267130 C/C vs T/T (Ref.), univariate
[9] = CHEK2 rs2267130 T/C vs T/T (Ref.), multivariable
[10] = CHEK2 rs2267130 T/C vs T/T (Ref.), univariate
[11] = KRAS Mutant vs Wild type (Ref.), univariate
[12] = LN metastasis No vs Yes (Ref.), univariate
[13] = Liver metastasis No vs Yes (Ref.), univariate
[14] = Lung metastasis No vs Yes (Ref.), univariate
[15] = Number of metastases >2 vs ≤2 (Ref.), univariate
[16] = Performance status ECOG 1 vs ECOG 0 (Ref.), univariate
[17] = Peritoneal No vs Yes (Ref.), univariate
[18] = Pre-chemo numbers ≥4 vs <4 (Ref.), univariate
[19] = Primary tumor resection No vs Yes (Ref.), univariate

## CNC(=O)c1cc(Oc2ccc(NC(=O)Nc3ccc(Cl)c(C(F)(F)F)c3)c(F)c2)ccn1 [regorafenib]
ATM rs609429 C/C (n=28)
  Median OS (months): 4.5 months
ATM rs609429 G/C or G/G (n=24)
  Median OS (months): 5.9 months
XRCC3 rs861539 G/A (n=37)
  Median OS (months): 5.9 months
  Median PFS (months): 1.9 months
XRCC3 rs861539 G/G (n=15)
  Median OS (months): 4.1 months
  Median PFS (months): 1.7 months
Control cohort receiving regorafenib without previous TAS-102, uni- and multivariate analyses
  association of candidate SNPs with PFS or OS: no significant differences; also recorded: no significant association
ATM rs609429 Any G
  Disease Control CR/PR/SD, patients n (%): 9 (38%)
  Median OS (95% CI): 5.9 (3.5, 10.2) months
  Median PFS (95% CI): 2.0 (1.7, 3.1) months
  PD, patients n (%): 15 (63%)
[1]
  HR OS (95% CI): 0.84 (0.47, 1.48)
  HR PFS (95% CI): 1.06 (0.60, 1.87)
[2]
  HR OS (95% CI): 1.91 (0.44, 8.31)
  HR PFS (95% CI): 0.95 (0.55, 1.66)
ATM rs609429 C/C
  Disease Control CR/PR/SD, patients n (%): 8 (32%)
  Median OS (95% CI): 4.6 (2.6, 7.6) months
  Median PFS (95% CI): 1.9 (1.6, 2.8) months
  PD, patients n (%): 17 (68%)
ATM rs609429 C/G
  Disease Control CR/PR/SD, patients n (%): 8 (38%)
  PD, patients n (%): 13 (62%)
ATM rs609429 G/G
  Disease Control CR/PR/SD, patients n (%): 1 (33%)
  PD, patients n (%): 2 (67%)
Adjuvant history No
  Median OS: 5.9 months
  Median PFS: 2.0 months
[3]
  HR OS: 0.59
  HR PFS: 0.71
Adjuvant history Yes
  Median OS: 3.9 months
  Median PFS: 1.8 months
Age <61
  Median OS: 5.1 months
  Median PFS: 1.8 months
Age ≥61
  Median OS: 5.8 months
  Median PFS: 2.1 months
[4]
  HR OS: 0.74
  HR PFS: 0.58
CHEK2 rs2267130 Any C
  Disease Control CR/PR/SD, patients n (%): 13 (36%)
  Median OS (95% CI): 5.9 (4.4, 7.9) months
  Median PFS (95% CI): 1.8 (1.7, 2.8) months
  PD, patients n (%): 23 (64%)
[5]
  HR OS (95% CI): 0.81 (0.42, 1.54)
  HR PFS (95% CI): 1.22 (0.65, 2.28)
[6]
  HR OS (95% CI): 0.80 (0.44, 1.48)
  HR PFS (95% CI): 1.07 (0.58, 1.95)
CHEK2 rs2267130 C/C
  Disease Control CR/PR/SD, patients n (%): 3 (27%)
  Median OS (95% CI): 5.7 (2.0, 7.8) months
  Median PFS (95% CI): 2.0 (1.5, 2.7) months
  PD, patients n (%): 8 (73%)
[7]
  HR OS (95% CI): 0.90 (0.41, 2.00)
  HR PFS (95% CI): 1.35 (0.61, 2.99)
[8]
  HR OS (95% CI): 0.89 (0.41, 1.97)
  HR PFS (95% CI): 1.18 (0.54, 2.59)
CHEK2 rs2267130 T/C
  Disease Control CR/PR/SD, patients n (%): 10 (40%)
  Median OS (95% CI): 6.2 (2.4, 8.9) months
  Median PFS (95% CI): 1.8 (1.6, 3.1) months
  PD, patients n (%): 15 (60%)
[9]
  HR OS (95% CI): 0.76 (0.38, 1.53)
  HR PFS (95% CI): 1.15 (0.58, 2.27)
[10]
  HR OS (95% CI): 0.77 (0.40, 1.48)
  HR PFS (95% CI): 1.02 (0.54, 1.95)
CHEK2 rs2267130 T/T
  Disease Control CR/PR/SD, patients n (%): 4 (31%)
  Median OS (95% CI): 3.8 (2.2, 8.0) months
  Median PFS (95% CI): 1.9 (1.4, 3.4) months
  PD, patients n (%): 9 (69%)
KRAS Mutant
  Median OS: 4.8 months
  Median PFS: 2.0 months
[11]
  HR OS: 0.93
  HR PFS: 1.05
KRAS Wild type
  Median OS: 6.3 months
  Median PFS: 1.9 months
LN metastasis No
  Median OS: 7.7 months
  Median PFS: 2.8 months
[12]
  HR OS: 0.62
  HR PFS: 0.52
LN metastasis Yes
  Median OS: 3.8 months
  Median PFS: 1.8 months
Liver metastasis No
  Median OS: 6.6 months
  Median PFS: 4.8 months
[13]
  HR OS: 0.61
  HR PFS: 0.46
Liver metastasis Yes
  Median OS: 4.7 months
  Median PFS: 1.9 months
Lung metastasis No
  Median OS: 3.7 months
  Median PFS: 2.0 months
[14]
  HR OS: 1.24
  HR PFS: 1.17
Lung metastasis Yes
  Median OS: 5.9 months
  Median PFS: 1.9 months
Number of metastases >2
  Median OS: 4.0 months
  Median PFS: 1.9 months
[15]
  HR OS: 1.59
  HR PFS: 1.86
Number of metastases ≤2
  Median OS: 6.3 months
  Median PFS: 2.8 months
Performance status ECOG 0
  Median OS: 5.9 months
  Median PFS: 2.1 months
Performance status ECOG 1
  Median OS: 2.4 months
  Median PFS: 1.2 months
[16]
  HR OS: 2.09
  HR PFS: 2.27
Peritoneal No
  Median OS: 5.5 months
  Median PFS: 2.0 months
[17]
  HR OS: 0.82
  HR PFS: 0.87
Peritoneal Yes
  Median OS: 5.1 months
  Median PFS: 1.9 months
Pre-chemo numbers <4
  Median OS: 6.0 months
  Median PFS: 2.0 months
Pre-chemo numbers ≥4
  Median OS: 4.7 months
  Median PFS: 1.8 months
[18]
  HR OS: 1.16
  HR PFS: 0.95
Primary tumor resection No
  Median OS: 4.2 months
  Median PFS: 2.0 months
[19]
  HR OS: 1.04
  HR PFS: 0.79
Primary tumor resection Yes
  Median OS: 5.6 months
  Median PFS: 1.9 months
